Test results as given in the supplement of paper PMC13380429.

Legend:
Details in all cases: 72 h
U2OS [1] = assay: drug sensitivity score (DSS) for viability; higher = more toxic; extreme values may be limits of the assay
Vero E6 [2] = assay: as above
Calu-3 [3] = assay: as above
Caco-2 [4] = assay: as above
HepG2 [5] = assay: as above
Vero E6 [6] = assay: relative viability EC50 (midpoint between 100% and the lowest measured viability); higher = less toxic
Calu-3 [7] = assay: as above
U2OS [8] = assay: cell viability relative to DMSO; higher = less toxic
Vero E6 [9] = assay: as above
Calu-3 [10] = assay: as above
Caco-2 [11] = assay: as above
HepG2 [12] = assay: as above
U2OS [13] = assay: relative viability EC50 (midpoint between 100% and the lowest measured viability); higher = less toxic
HepG2 [14] = assay: as above

SMILES | drug sensitivity score (U2OS [1]) | drug sensitivity score (Vero E6 [2]) | drug sensitivity score (Calu-3 [3]) | drug sensitivity score (Caco-2 [4]) | drug sensitivity score (HepG2 [5]) | relative viability EC50 (Vero E6 [6]) | relative viability EC50 (Calu-3 [7]) | cell viability (U2OS [8]; 1 nM) | cell viability (U2OS [8]; 10 nM) | cell viability (U2OS [8]; 100 nM) | cell viability (U2OS [8]; 1000 nM) | cell viability (U2OS [8]; 10000 nM) | cell viability (Vero E6 [9]; 1 nM) | cell viability (Vero E6 [9]; 10 nM) | cell viability (Vero E6 [9]; 100 nM) | cell viability (Vero E6 [9]; 1000 nM) | cell viability (Vero E6 [9]; 10000 nM) | cell viability (Calu-3 [10]; 1 nM) | cell viability (Calu-3 [10]; 10 nM) | cell viability (Calu-3 [10]; 100 nM) | cell viability (Calu-3 [10]; 1000 nM) | cell viability (Calu-3 [10]; 10000 nM) | cell viability (Caco-2 [11]; 1 nM) | cell viability (Caco-2 [11]; 10 nM) | cell viability (Caco-2 [11]; 100 nM) | cell viability (Caco-2 [11]; 1000 nM) | cell viability (Caco-2 [11]; 10000 nM) | cell viability (HepG2 [12]; 1 nM) | cell viability (HepG2 [12]; 10 nM) | cell viability (HepG2 [12]; 100 nM) | cell viability (HepG2 [12]; 1000 nM) | cell viability (HepG2 [12]; 10000 nM) | relative viability EC50 (U2OS [13]) | relative viability EC50 (HepG2 [14])
COc1cc(N2CCC(N3CCN(C)CC3)CC2)ccc1Nc1ncc(Cl)c(Nc2ccccc2P(C)(C)=O)n1 [brigatinib] | 1.9 | 1.4 | 5.3 | 1.8 | 4.8 | > 10 µM | 1.92 µM | 97.2% | 99.5% | 97.4% | 98.4% | 64.8% | 98.7% | 102% | 101% | 94.5% | 78.5% | 105% | 102% | 106% | 89.5% | 35.3% | 94.9% | 97% | 92.8% | 94% | 73% | 98.1% | 92.8% | 105% | 81.7% | 55% |  | 
O=C(N[C@H](CO)[C@H](O)c1ccc([N+](=O)[O-])cc1)C(Cl)Cl [chloramphenicol] | 0 | 0 | 0 |  | 1.1 |  |  |  |  |  |  |  |  |  |  |  |  |  |  |  |  |  |  |  |  |  |  |  |  |  |  |  |  | 
Oc1ccc(Cl)cc1Cc1cc(Cl)ccc1O [dichlorophen] | 0 | 0.3 |  | 5.9 | 1.1 | > 10 µM |  | 101% | 95.1% | 96.7% | 99.7% | 93.5% | 106% | 99.4% | 104% | 97.5% | 86.7% |  |  |  |  |  | 107% | 88.9% | 108% | 70.1% | 54.6% | 105% | 89.4% | 96.9% | 97.9% | 76.6% | > 10 µM | > 10 µM
O=C(O)Cc1ccccc1Nc1c(Cl)cccc1Cl [diclofenac] | 0 | 0 | 0 |  |  |  |  |  |  |  |  |  |  |  |  |  |  |  |  |  |  |  |  |  |  |  |  |  |  |  |  |  |  | 
COc1ccc(-c2oc3c(CC=C(C)C)c(O[C@@H]4O[C@H](CO)[C@@H](O)[C@H](O)[C@H]4O)cc(O)c3c(=O)c2O[C@@H]2O[C@@H](C)[C@H](O)[C@@H](O)[C@H]2O)cc1 [icariin] | 0 | 0 | 0 |  | 0 |  |  |  |  |  |  |  |  |  |  |  |  |  |  |  |  |  |  |  |  |  |  |  |  |  |  |  |  | 
CCNC(=O)[C@@H]1CCCN1C(=O)[C@H](CCCNC(=N)N)NC(=O)[C@H](CC(C)C)NC(=O)[C@@H](CC(C)C)NC(=O)[C@H](Cc1ccc(O)cc1)NC(=O)[C@H](CO)NC(=O)[C@H](Cc1c[nH]c2ccccc12)NC(=O)[C@H](Cc1c[nH]cn1)NC(=O)[C@@H]1CCC(=O)N1 [leuprolide] | 0 | 0 | 0 | 0.7 |  | > 10 µM | > 10 µM | 92.6% | 96.9% | 103% | 97% | 102% | 102% | 99.3% | 98.6% | 105% | 105% | 99.5% | 99.3% | 95% | 110% | 103% | 107% | 114% | 107% | 114% | 72.2% |  |  |  |  |  | > 10 µM | 
N[C@@H](Cc1cc(I)c(Oc2ccc(O)c(I)c2)c(I)c1)C(=O)O [liothyronine] | 0 | 1 | 0 | 0 | 0 |  |  | 97.1% | 97.5% | 93.4% | 96% | 93.5% | 104% | 92.4% | 92.6% | 88.6% | 91.3% | 98.9% | 96.8% | 92.5% | 93.5% | 95% | 93.8% | 98.5% | 96.7% | 98.1% | 96.5% | 102% | 104% | 107% | 96.6% |  |  | 
COC(=O)CCC(=O)CN [methyl-aminolevulinate] | 0 | 0 | 0 |  | 0 | > 10 µM | > 10 µM | 90.5% | 96% | 96.8% | 97.3% | 104% | 97.1% | 89% | 99.5% | 88.8% | 105% | 101% | 96.5% | 98% | 100% | 93.4% |  |  |  |  |  | 83.8% | 98.4% | 94.5% | 84% | 87.8% | > 10 µM | > 10 µM
CC(C)(O)[C@@H]1[C@H]2OC(=O)[C@@H]1[C@]1(O)C[C@H]3O[C@]34C(=O)O[C@H]2[C@]14C [picrotin] | 0 |  | 0 |  | 0 |  |  |  |  |  |  |  |  |  |  |  |  |  |  |  |  |  |  |  |  |  |  |  |  |  |  |  |  | 
CC(C)Cc1ccc([C@@H](C)C(=O)NS(C)(=O)=O)cc1 [reparixin] | 0 | 0 | 0 |  | 0 |  |  |  |  |  |  |  |  |  |  |  |  |  |  |  |  |  |  |  |  |  |  |  |  |  |  |  |  | 
CSCC[C@H](NC(=O)[C@H](CC(C)C)NC(=O)CNC(=O)[C@H](Cc1ccccc1)NC(=O)[C@H](Cc1ccccc1)NC(=O)[C@H](CCC(N)=O)NC(=O)[C@H](CCC(N)=O)NC(=O)[C@@H]1CCCN1C(=O)[C@H](CCCCN)NC(=O)[C@@H]1CCCN1C(=O)[C@@H](N)CCCN=C(N)N)C(N)=O [substance-P] | 0 | 0 | 0 |  | 0 | > 10 µM | > 10 µM | 99.5% | 97.2% | 96.2% | 96.7% | 98.2% | 102% | 97.5% | 103% | 102% | 99% | 103% | 98.4% | 102% | 96.5% | 95.6% |  |  |  |  |  | 88.1% | 96.3% | 100% | 107% | 105% | > 10 µM | > 10 µM
CS(=O)(=O)c1ccc(-c2cn3ccccc3n2)cc1 [zolimidine] | 0 | 0.3 |  |  | 0 | > 10 µM |  | 100% | 94.7% | 94.8% | 93.5% | 95.9% | 107% | 107% | 105% | 94.4% | 88% |  |  |  |  |  |  |  |  |  |  | 117% | 104% | 87.3% | 98.6% | 93.8% | > 10 µM | > 10 µM
